From the NIST ThermoML archive (doi:10.1016/j.jct.2016.03.026)
± gives the expanded uncertainty stated by the source.

Assay: xn = mol fraction of the nth substance listed
Settings: 313.15 K, Fluid (supercritical or subcritical phases), Vibrating tube method, x1 = 0.97

O=C=O [carbon dioxide] + CO
Settings	mass density [kg/m3]
11150 kPa	721.68 ± 0.83
11175 kPa	722.44 ± 0.83
11200 kPa	723.12 ± 0.83
11225 kPa	723.83 ± 0.83
11250 kPa	724.5 ± 0.83
11275 kPa	725.17 ± 0.83
11300 kPa	725.87 ± 0.83
11325 kPa	726.55 ± 0.83
11350 kPa	727.24 ± 0.83
11375 kPa	727.87 ± 0.83
11400 kPa	728.58 ± 0.83
11425 kPa	729.26 ± 0.83
11450 kPa	729.89 ± 0.83
11475 kPa	730.56 ± 0.83
11500 kPa	731.23 ± 0.83
11525 kPa	731.88 ± 0.83
11550 kPa	732.54 ± 0.83
11575 kPa	733.12 ± 0.83
11600 kPa	733.75 ± 0.83
11625 kPa	734.36 ± 0.83
11650 kPa	734.97 ± 0.83
11675 kPa	735.62 ± 0.83
11700 kPa	736.24 ± 0.83
11725 kPa	736.79 ± 0.83
11750 kPa	737.41 ± 0.83
11775 kPa	738.01 ± 0.83
11800 kPa	738.59 ± 0.83
11825 kPa	739.2 ± 0.83
11850 kPa	739.81 ± 0.83
11875 kPa	740.42 ± 0.83
11900 kPa	741.01 ± 0.83
11925 kPa	741.62 ± 0.83
11950 kPa	742.23 ± 0.83
11975 kPa	742.81 ± 0.83
12000 kPa	743.38 ± 0.83
12025 kPa	743.98 ± 0.83
12050 kPa	744.51 ± 0.83
12075 kPa	745.12 ± 0.83
12100 kPa	745.65 ± 0.83
12125 kPa	746.23 ± 0.83
12150 kPa	746.78 ± 0.83
12175 kPa	747.4 ± 0.83
12200 kPa	747.95 ± 0.83
12225 kPa	748.48 ± 0.83
12250 kPa	749.04 ± 0.83
12275 kPa	749.5 ± 0.83
12300 kPa	750.05 ± 0.83
12325 kPa	750.56 ± 0.83
12350 kPa	751.14 ± 0.83
12375 kPa	751.63 ± 0.83
12400 kPa	752.14 ± 0.83
12425 kPa	752.63 ± 0.83
12450 kPa	753.18 ± 0.83
12475 kPa	753.64 ± 0.83
12500 kPa	754.12 ± 0.83
12525 kPa	754.59 ± 0.83
12550 kPa	755.09 ± 0.83
12575 kPa	755.53 ± 0.83
12600 kPa	756 ± 0.83
12625 kPa	756.47 ± 0.83
12650 kPa	756.92 ± 0.83
12675 kPa	757.39 ± 0.83
12700 kPa	757.86 ± 0.83
12725 kPa	758.3 ± 0.83
12750 kPa	758.68 ± 0.83
12775 kPa	759.12 ± 0.83
12800 kPa	759.54 ± 0.83
12825 kPa	759.98 ± 0.83
12850 kPa	760.36 ± 0.83
12875 kPa	760.82 ± 0.83
12900 kPa	761.3 ± 0.83
12925 kPa	761.76 ± 0.83
12950 kPa	762.23 ± 0.83
12975 kPa	762.72 ± 0.83
13000 kPa	763.15 ± 0.83
13025 kPa	763.58 ± 0.83
13050 kPa	764.07 ± 0.83
13075 kPa	764.54 ± 0.83
13100 kPa	764.93 ± 0.83
13125 kPa	765.37 ± 0.83
13150 kPa	765.86 ± 0.83
13175 kPa	766.29 ± 0.83
13200 kPa	766.75 ± 0.83
13225 kPa	767.22 ± 0.83
13250 kPa	767.6 ± 0.83
13275 kPa	768.04 ± 0.83
13300 kPa	768.47 ± 0.83
13325 kPa	768.93 ± 0.83
13350 kPa	769.37 ± 0.83
13375 kPa	769.83 ± 0.83
13400 kPa	770.23 ± 0.83
13425 kPa	770.69 ± 0.83
13450 kPa	771.07 ± 0.83
13475 kPa	771.5 ± 0.83
13500 kPa	771.93 ± 0.83
13525 kPa	772.34 ± 0.83
13550 kPa	772.7 ± 0.83
13575 kPa	773.15 ± 0.83
13600 kPa	773.57 ± 0.83
13625 kPa	773.92 ± 0.83
13650 kPa	774.36 ± 0.83
13675 kPa	774.79 ± 0.83
13700 kPa	775.16 ± 0.83
13725 kPa	775.57 ± 0.83
13750 kPa	776 ± 0.83
13775 kPa	776.36 ± 0.83
13800 kPa	776.72 ± 0.83
13825 kPa	777.12 ± 0.83
13850 kPa	777.52 ± 0.83
13875 kPa	777.93 ± 0.83
13900 kPa	778.33 ± 0.83
13925 kPa	778.72 ± 0.83
13950 kPa	779.11 ± 0.83
13975 kPa	779.47 ± 0.83
14000 kPa	779.85 ± 0.83
14025 kPa	780.28 ± 0.83
14050 kPa	780.67 ± 0.83
14075 kPa	781.06 ± 0.83
14100 kPa	781.44 ± 0.83
14125 kPa	781.8 ± 0.83
14150 kPa	782.18 ± 0.83
14175 kPa	782.55 ± 0.83
14200 kPa	782.93 ± 0.83
14225 kPa	783.28 ± 0.83
14250 kPa	783.65 ± 0.83
14275 kPa	784.01 ± 0.83
14300 kPa	784.39 ± 0.83
14325 kPa	784.77 ± 0.83
14350 kPa	785.15 ± 0.83
14375 kPa	785.52 ± 0.83
14400 kPa	785.88 ± 0.83
14425 kPa	786.27 ± 0.83
14450 kPa	786.66 ± 0.83
14475 kPa	787.01 ± 0.83
14500 kPa	787.34 ± 0.83
14525 kPa	787.73 ± 0.83
14550 kPa	788.05 ± 0.83
14575 kPa	788.43 ± 0.83
14600 kPa	788.78 ± 0.83
14625 kPa	789.1 ± 0.83
14650 kPa	789.51 ± 0.83
14675 kPa	789.86 ± 0.83
14700 kPa	790.23 ± 0.83
14725 kPa	790.55 ± 0.83
14750 kPa	790.91 ± 0.83
14775 kPa	791.25 ± 0.83
14800 kPa	791.65 ± 0.83
14825 kPa	791.96 ± 0.83
14850 kPa	792.31 ± 0.83
14875 kPa	792.64 ± 0.83
14900 kPa	793.03 ± 0.83
14925 kPa	793.37 ± 0.83
14950 kPa	793.74 ± 0.83
14975 kPa	794.09 ± 0.83
15000 kPa	794.4 ± 0.83
15025 kPa	794.78 ± 0.83
15050 kPa	795.16 ± 0.83
15075 kPa	795.5 ± 0.83
15100 kPa	795.8 ± 0.83
15125 kPa	796.2 ± 0.83
15150 kPa	796.56 ± 0.83
15175 kPa	796.89 ± 0.83
15200 kPa	797.19 ± 0.83
15225 kPa	797.52 ± 0.83
15250 kPa	797.89 ± 0.83
15275 kPa	798.26 ± 0.83
15300 kPa	798.53 ± 0.83
15325 kPa	798.91 ± 0.83
15350 kPa	799.22 ± 0.83
15375 kPa	799.54 ± 0.83
15400 kPa	799.88 ± 0.83
15425 kPa	800.19 ± 0.83
15450 kPa	800.53 ± 0.83
15475 kPa	800.87 ± 0.83
15500 kPa	801.17 ± 0.83
15525 kPa	801.53 ± 0.83
15550 kPa	801.84 ± 0.83
15575 kPa	802.17 ± 0.83
15600 kPa	802.47 ± 0.83
15625 kPa	802.79 ± 0.83
15650 kPa	803.12 ± 0.83
15675 kPa	803.42 ± 0.83
15700 kPa	803.73 ± 0.83
15725 kPa	804.02 ± 0.83
15750 kPa	804.34 ± 0.83
15775 kPa	804.65 ± 0.83
15800 kPa	804.99 ± 0.83
15825 kPa	805.27 ± 0.83
15850 kPa	805.58 ± 0.83
15875 kPa	805.91 ± 0.83
15900 kPa	806.23 ± 0.83
15925 kPa	806.51 ± 0.83
15950 kPa	806.83 ± 0.83
15975 kPa	807.09 ± 0.83
16000 kPa	807.41 ± 0.83
16025 kPa	807.71 ± 0.83
16050 kPa	807.98 ± 0.83
16075 kPa	808.29 ± 0.83
16100 kPa	808.61 ± 0.83
16125 kPa	808.91 ± 0.83
16150 kPa	809.2 ± 0.83
16175 kPa	809.5 ± 0.83
16200 kPa	809.79 ± 0.83
16225 kPa	810.09 ± 0.83
16250 kPa	810.39 ± 0.83
16275 kPa	810.69 ± 0.83
16300 kPa	810.98 ± 0.83
16325 kPa	811.27 ± 0.83
16350 kPa	811.55 ± 0.83
16375 kPa	811.82 ± 0.83
16400 kPa	812.11 ± 0.83
16425 kPa	812.38 ± 0.83
16450 kPa	812.66 ± 0.83
16475 kPa	812.9 ± 0.83
16500 kPa	813.24 ± 0.83
16525 kPa	813.5 ± 0.83
16550 kPa	813.76 ± 0.83
16575 kPa	814.03 ± 0.83
16600 kPa	814.33 ± 0.83
16625 kPa	814.6 ± 0.83
16650 kPa	814.87 ± 0.83
16675 kPa	815.12 ± 0.83
16700 kPa	815.43 ± 0.83
16725 kPa	815.67 ± 0.83
16750 kPa	815.94 ± 0.83
16775 kPa	816.22 ± 0.83
16800 kPa	816.46 ± 0.83
16825 kPa	816.74 ± 0.83
16850 kPa	817 ± 0.83
16875 kPa	817.27 ± 0.83
16900 kPa	817.54 ± 0.83
16925 kPa	817.8 ± 0.83
16950 kPa	818.05 ± 0.83
16975 kPa	818.28 ± 0.83
17000 kPa	818.55 ± 0.83
17025 kPa	818.81 ± 0.83
17050 kPa	819.06 ± 0.83
17075 kPa	819.27 ± 0.83
17100 kPa	819.55 ± 0.83
17125 kPa	819.79 ± 0.83
17150 kPa	820.09 ± 0.83
17175 kPa	820.32 ± 0.83
17200 kPa	820.54 ± 0.83
17225 kPa	820.77 ± 0.83
